Molecular target: Jak2 (human Jak2 kinase domain, amino acids 808-1132) (Homo sapiens (Human), UniProt O60674)
Assay: Jak2 inhibition assay (Omnia kinase assay)
Type: biochemical
Conditions: read-out: Jak2 Enzyme (% inhibition at 1000 nM), Table 1; 1000 nM test compound
Protocol: The assays described in Examples C, D, E and F for the determination of JAK1, JAK2, JAK3 and Tyk2 kinase activity, respectively, utilized the Omnia® Kinase fluorescence peptide substrate-based technology (Invitrogen). […] The reactions were therefore read at excitation 360 nm and emission was measured at 485 nm every 50 seconds for 45 minutes using a PerkinElmer EnVision Multilabel Plate Reader.
The final buffer conditions for each of the JAK1, JAK2, JAK3 and Tyk2 assays were as follows: 25 mM HEPES, pH 7.4, 10 mM MgCl2, 0.01% Triton X-100 and 1 mM DTT.
Two-μL aliquots of these were transferred to a fresh plate for a ten-fold intermediate dilution with assay buffer. Five-μL aliquots of the diluted compounds were then transferred to 20-μL of assay mixtures described in Examples C, D, E and F for a final concentration of DMSO of 2%. […] For each plate, percent of control (POC) values were calculated for each well according to the following equation:
where Xmax=Average Uninhibited Controls • Xmin=Average Background IC50's were estimated from the POC's using a standard 4-parameter logistic model:
where A=Minimum Y (Bottom Asymptote) • B=Maximum Y (Top Asymptote) • C=EC50 • D=Slope Factor • X=Compound Concentration (nM) • Y=POC
The IC50 is defined as the concentration of inhibitor at which the POC equals 50 for the fitted curve.
Compounds of Formula I were screened for their ability to inhibit Jak2 using the general enzyme inhibition assay method, in which the assay mixture contained 500 μM ATP, 10 μM Omnia® Y7 peptide (Catalog # IVGN KNZ3071C, Invitrogen Corporation, Carlsbad, Calif.) and 4 nM Jak2 in a total volume of 20 μL. Human Jak2 kinase domain comprising amino acids 808-1132 was purchased from Invitrogen Corporation, Carlsbad, Calif. (catalog # IVGN PV4210).

Sequence of Jak2 (human Jak2 kinase domain, amino acids 808-1132) (O60674 808-1132): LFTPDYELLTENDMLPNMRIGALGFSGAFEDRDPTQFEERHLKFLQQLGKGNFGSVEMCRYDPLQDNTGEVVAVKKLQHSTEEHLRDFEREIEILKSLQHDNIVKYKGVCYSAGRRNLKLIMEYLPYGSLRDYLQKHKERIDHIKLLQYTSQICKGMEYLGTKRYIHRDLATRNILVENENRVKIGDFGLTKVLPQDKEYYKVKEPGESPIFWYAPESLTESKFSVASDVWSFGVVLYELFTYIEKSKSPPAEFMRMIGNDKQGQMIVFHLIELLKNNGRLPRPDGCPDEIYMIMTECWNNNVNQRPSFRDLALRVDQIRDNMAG

inhibition at 1 µM [%]	Compound
73.7	CC1(O)CCC(NC(=O)c2cnn3ccc(N4CCC[C@@H]4c4cc(F)ccc4F)nc23)CC1 (single isomer, unassigned; diastereomer 1) [Example 50]
39.5	CC(C)(C)NC(=O)c1cnn2ccc(N3CCC[C@@H]3c3cc(F)ccc3F)nc12 [Example 1, (R)—N-tert-butyl-5-(2-(2,5-difluorophenyl)pyrrolidin-1-yl)pyrazolo[1,5-a]pyrimidine-3-carboxamide]
19.1	O=C(Nc1ccccn1)c1cnn2ccc(N3CCC[C@@H]3c3cc(F)ccc3F)nc12 [Example 2, (R)-5-(2-(2,5-difluorophenyl)pyrrolidin-1-yl)-N-(pyridin-2-yl)pyrazolo[1,5-a]pyrimidine-3-carboxamide]
18.8	O=C(NCCN1CCOCC1)c1cnn2ccc(N3CCC[C@@H]3c3cc(F)ccc3F)nc12 [Example 4, (R)-5-(2-(2,5-difluorophenyl)pyrrolidin-1-yl)-N-(2-morpholinoethyl)pyrazolo[1,5-a]pyrimidine-3-carboxamide]
14.2	Cc1ccc(CNC(=O)c2cnn3ccc(N4CCC[C@@H]4c4cc(F)ccc4F)nc23)o1 [Example 5, (R)-5-(2-(2,5-difluorophenyl)pyrrolidin-1-yl)-N-((5-methylfuran-2-yl)methyl)pyrazolo[1,5-a]pyrimidine-3-carboxamide]
12.9	Cn1ccc(NC(=O)c2cnn3ccc(N4CCC[C@@H]4c4cc(F)ccc4F)nc23)n1 [Example 6, (R)-5-(2-(2,5-difluorophenyl)pyrrolidin-1-yl)-N-(1-methyl-1H-pyrazol-3-yl)pyrazolo[1,5-a]pyrimidine-3-carboxamide]
25.7	CC(C)(CO)NC(=O)c1cnn2ccc(N3CCC[C@@H]3c3cc(F)ccc3F)nc12 [Example 8, (R)-5-(2-(2,5-difluorophenyl)pyrrolidin-1-yl)-N-(1-hydroxy-2-methylpropan-2-yl)pyrazolo[1,5-a]pyrimidine-3-carboxamide]
4.6	CC(C)(CN1CCOCC1)NC(=O)c1cnn2ccc(N3CCC[C@@H]3c3cc(F)ccc3F)nc12 [Example 9, (R)-5-(2-(2,5-difluorophenyl)pyrrolidin-1-yl)-N-(2-methyl-1-morpholinopropan-2-yl)pyrazolo[1,5-a]pyrimidine-3-carboxamide]
47.5	CNC(=O)c1cnn2ccc(N3CCC[C@@H]3c3cc(F)ccc3F)nc12 [Example 10, (R)-5-(2-(2,5-difluorophenyl)pyrrolidin-1-yl)-N-methylpyrazolo[1,5-a]pyrimidine-3-carboxamide]
10.1	O=C(O)C1CCN(C(=O)c2cnn3ccc(N4CCC[C@@H]4c4cc(F)ccc4F)nc23)CC1 [Example 11, (R)-1-(5-(2-(2,5-difluorophenyl)pyrrolidin-1-yl)pyrazolo[1,5-a]pyrimidine-3-carbonyl)piperidine-4-carboxylic Acid]
4.5	O=C(O)CC1CCN(C(=O)c2cnn3ccc(N4CCC[C@@H]4c4cc(F)ccc4F)nc23)CC1 [Example 12, (R)-2-(1-(5-(2-(2,5-difluorophenyl)pyrrolidin-1-yl)pyrazolo[1,5-a]pyrimidine-3-carbonyl)piperidin-4-yl)acetic Acid]
41.4	O=C(NC1CC1)c1cnn2ccc(N3CCC[C@@H]3c3cc(F)ccc3F)nc12 [Example 13, (R)—N-cyclopropyl-5-(2-(2,5-difluorophenyl)pyrrolidin-1-yl)pyrazolo[1,5-a]pyrimidine-3-carboxamide]
3.4	O=C(c1cnn2ccc(N3CCC[C@@H]3c3cc(F)ccc3F)nc12)N1CC[C@@H](O)C1 [Example 19, (5-((R)-2-(2,5-difluorophenyl)pyrrolidin-1-yl)pyrazolo[1,5-a]pyrimidin-3-yl)((R)-3-hydroxypyrrolidin-1-yl)methanone]
1.3	CN(C)C(=O)c1cnn2ccc(N3CCC[C@@H]3c3cc(F)ccc3F)nc12 [Example 27, (R)-5-(2-(2,5-difluorophenyl)pyrrolidin-1-yl)-N,N-dimethylpyrazolo[1,5-a]pyrimidine-3-carboxamide]
5	O=C(NCCn1ccnc1)c1cnn2ccc(N3CCC[C@@H]3c3cc(F)ccc3F)nc12 [Example 28, (R)—N-(2-(1H-imidazol-1-yl)ethyl)-5-(2-(2,5-difluorophenyl)pyrrolidin-1-yl)pyrazolo[1,5-a]pyrimidine-3-carboxamide]

Second part, the molecule before the results:

Compound	inhibition at 1 µM [%]
C[C@@H](O)CNC(=O)c1cnn2ccc(N3CCCC3c3cc(F)ccc3F)nc12 (stereo in doubt) [Example 167, 5-((R)-2-(2,5-difluorophenyl)pyrrolidin-1-yl)-N-(2-hydroxypropyl)pyrazolo[1,5-a]pyrimidine-3-carboxamide]	9.8
Cc1cccnc1NC(=O)c1cnn2ccc(N3CCC[C@@H]3c3cc(F)ccc3F)nc12 [Example 3, (R)-5-(2-(2,5-difluorophenyl)pyrrolidin-1-yl)-N-(3-methylpyridin-2-yl)pyrazolo[1,5-a]pyrimidine-3-carboxamide]	10.1
O=C(N[C@H]1CC[C@H](O)CC1)c1cnn2ccc(N3CCC[C@@H]3c3cc(F)ccc3F)nc12 [Example 7, 5-((R)-2-(2,5-difluorophenyl)pyrrolidin-1-yl)-N-((trans)-4-hydroxycyclohexyl)pyrazolo[1,5-a]pyrimidine-3-carboxamide]	90
O=C(NC1CCC1)c1cnn2ccc(N3CCC[C@@H]3c3cc(F)ccc3F)nc12 [Example 14, (R)—N-cyclobutyl-5-(2-(2,5-difluorophenyl)pyrrolidin-1-yl)pyrazolo[1,5-a]pyrimidine-3-carboxamide]	66.7
O=C(NC1(CO)CC1)c1cnn2ccc(N3CCC[C@@H]3c3cc(F)ccc3F)nc12 [Example 16, (R)-5-(2-(2,5-difluorophenyl)pyrrolidin-1-yl)-N-(1-(hydroxymethyl)cyclopropyl)pyrazolo[1,5-a]pyrimidine-3-carboxamide]	31.7
CC(C)(O)CNC(=O)c1cnn2ccc(N3CCC[C@@H]3c3cc(F)ccc3F)nc12 [Example 17, (R)-5-(2-(2,5-difluorophenyl)pyrrolidin-1-yl)-N-(2-hydroxy-2-methylpropyl)pyrazolo[1,5-a]pyrimidine-3-carboxamide]	5.6
O=C(c1cnn2ccc(N3CCC[C@@H]3c3cc(F)ccc3F)nc12)N1CC[C@H](O)C1 [Example 18, (5-((R)-2-(2,5-difluorophenyl)pyrrolidin-1-yl)pyrazolo[1,5-a]pyrimidin-3-yl)((S)-3-hydroxypyrrolidin-1-yl)methanone]	2.8
O=C(NC1CCOCC1)c1cnn2ccc(N3CCC[C@@H]3c3cc(F)ccc3F)nc12 [Example 20, (R)-5-(2-(2,5-difluorophenyl)pyrrolidin-1-yl)-N-(tetrahydro-2H-pyran-4-yl)pyrazolo[1,5-a]pyrimidine-3-carboxamide]	78.9
Cn1cnc(CNC(=O)c2cnn3ccc(N4CCC[C@@H]4c4cc(F)ccc4F)nc23)c1 [Example 21, (R)-5-(2-(2,5-difluorophenyl)pyrrolidin-1-yl)-N-((1-methyl-1H-imidazol-4-yl)methyl) pyrazole[1,5-a]pyrimidine-3-carboxamide]	5.8
Cn1cc(CNC(=O)c2cnn3ccc(N4CCC[C@@H]4c4cc(F)ccc4F)nc23)cn1 [Example 22, (R)-5-(2-(2,5-difluorophenyl)pyrrolidin-1-yl)-N-((1-methyl-1H-pyrazol-4-yl)methyl)pyrazolo[1,5-a]pyrimidine-3-carboxamide]	9.8
O=C(NCCN1CCNC1=O)c1cnn2ccc(N3CCC[C@@H]3c3cc(F)ccc3F)nc12 [Example 24, (R)-5-(2-(2,5-difluorophenyl)pyrrolidin-1-yl)-N-(2-(2-oxoimidazolidin-1-yl)ethyl) pyrazole[1,5-a]pyrimidine-3-carboxamide]	11.5
O=C(NCCc1c[nH]cn1)c1cnn2ccc(N3CCC[C@@H]3c3cc(F)ccc3F)nc12 [Example 25, (R)—N-(2-(1H-imidazol-4-yl)ethyl)-5-(2-(2,5-difluorophenyl)pyrrolidin-1-yl)pyrazole [1,5-a]pyrimidine-3-carboxamide]	19.4
O=C(NC[C@@H](O)CO)c1cnn2ccc(N3CCC[C@@H]3c3cc(F)ccc3F)nc12 [Example 26, 5-((R)-2-(2,5-difluorophenyl)pyrrolidin-1-yl)-N—((R)-2,3-dihydroxypropyl)pyrazolo[1,5-a]pyrimidine-3-carboxamide]	9.9
O=C(NC[C@H](O)CO)c1cnn2ccc(N3CCC[C@@H]3c3cc(F)ccc3F)nc12 [Example 29, 5-((R)-2-(2,5-difluorophenyl)pyrrolidin-1-yl)-N—((S)-2,3-dihydroxypropyl)pyrazolo[1,5-a]pyrimidine-3-carboxamide]	13.2

— patent US10251889B2, “Substituted pyrazolo[1,5-a]pyrimidine compounds as Trk kinase inhibitors” (Array BioPharma, Inc., priority 2009, dated 2019)
